Assays:
P450 2A6 [1] = target: T1, P450 2A6 (Homo sapiens, UniProt P11509); assay: Oxidation by P450 2A6 bicistronic membranes, HPLC; settings: product peaks only with NADPH-generating system
T1 sequence (P11509 1-494): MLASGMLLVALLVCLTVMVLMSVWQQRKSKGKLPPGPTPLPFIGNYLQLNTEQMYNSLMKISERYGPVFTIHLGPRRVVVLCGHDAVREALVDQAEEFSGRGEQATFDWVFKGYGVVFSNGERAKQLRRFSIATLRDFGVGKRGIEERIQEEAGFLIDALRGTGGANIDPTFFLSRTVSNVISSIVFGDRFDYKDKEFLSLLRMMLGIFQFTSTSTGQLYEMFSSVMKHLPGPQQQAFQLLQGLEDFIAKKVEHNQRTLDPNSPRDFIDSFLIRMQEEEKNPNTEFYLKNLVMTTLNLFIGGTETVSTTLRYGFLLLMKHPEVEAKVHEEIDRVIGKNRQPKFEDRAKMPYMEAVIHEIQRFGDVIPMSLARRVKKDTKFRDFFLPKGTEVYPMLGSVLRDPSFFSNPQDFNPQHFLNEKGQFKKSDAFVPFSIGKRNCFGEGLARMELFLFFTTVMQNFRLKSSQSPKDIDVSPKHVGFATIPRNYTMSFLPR

P450 2A13 [2] = target: T2, P450 2A13 (Homo sapiens, UniProt Q16696); assay: Oxidation by P450 2A13 bicistronic membranes, HPLC; settings: for metabolism (HPLC): product peaks only with NADPH-generating system; for Formation of oxygenated products on LC-MS analysis: results not shown
T2 sequence (Q16696 1-494): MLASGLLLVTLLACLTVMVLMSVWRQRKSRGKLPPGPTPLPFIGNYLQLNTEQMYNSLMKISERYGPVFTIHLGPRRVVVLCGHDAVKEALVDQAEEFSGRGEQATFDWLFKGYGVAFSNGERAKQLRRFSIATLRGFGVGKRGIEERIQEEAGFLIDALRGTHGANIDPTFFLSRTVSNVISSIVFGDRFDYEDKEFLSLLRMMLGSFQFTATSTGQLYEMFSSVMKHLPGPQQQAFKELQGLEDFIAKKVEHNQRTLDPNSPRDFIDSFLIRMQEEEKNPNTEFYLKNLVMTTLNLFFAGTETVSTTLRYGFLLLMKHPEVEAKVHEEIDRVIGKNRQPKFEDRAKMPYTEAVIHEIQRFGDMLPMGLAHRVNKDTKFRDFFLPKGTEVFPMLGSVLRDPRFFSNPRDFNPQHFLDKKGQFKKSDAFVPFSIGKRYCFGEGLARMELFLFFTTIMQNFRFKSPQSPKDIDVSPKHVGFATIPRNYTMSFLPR

P450 2A13 [3] = target: T2, P450 2A13; assay: Spectral binding titration; settings: P450 2A13
P450 2A6 [4] = target: T1, P450 2A6; assay: Spectral binding titration; settings: P450 2A6 1.0 μM, pH 7.4; means and S.E.
P450 1B1 (1B1.3, L432V) = target: T3, P450 1B1 (1B1.3, L432V) (Homo sapiens, UniProt Q16678, L432V); assay: Oxidation by P450 1B1 bicistronic membranes, HPLC; settings: P450 1B1.3; Figure 5
T3 sequence (Q16678 1-543 L432V): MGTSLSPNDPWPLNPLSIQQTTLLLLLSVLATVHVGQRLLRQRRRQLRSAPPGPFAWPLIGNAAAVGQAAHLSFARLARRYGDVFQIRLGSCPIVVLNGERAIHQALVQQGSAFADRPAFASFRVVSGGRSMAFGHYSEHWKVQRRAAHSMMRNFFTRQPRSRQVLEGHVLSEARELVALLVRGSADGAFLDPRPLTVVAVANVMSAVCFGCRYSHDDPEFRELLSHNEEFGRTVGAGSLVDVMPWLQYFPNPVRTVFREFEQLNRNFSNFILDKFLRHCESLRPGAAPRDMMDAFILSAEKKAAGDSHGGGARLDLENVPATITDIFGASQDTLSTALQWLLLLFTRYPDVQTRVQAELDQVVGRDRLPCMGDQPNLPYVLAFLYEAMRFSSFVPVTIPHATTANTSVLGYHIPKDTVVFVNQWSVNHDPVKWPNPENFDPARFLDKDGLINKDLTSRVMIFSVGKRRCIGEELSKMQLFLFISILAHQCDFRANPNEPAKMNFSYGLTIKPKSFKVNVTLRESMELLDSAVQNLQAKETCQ

P450 1A2 [5] = target: T4, P450 1A2 (Homo sapiens, UniProt P05177); assay: Oxidation by P450 1A2 bicistronic membranes, HPLC; settings: Figure 5
T4 sequence (P05177 1-516): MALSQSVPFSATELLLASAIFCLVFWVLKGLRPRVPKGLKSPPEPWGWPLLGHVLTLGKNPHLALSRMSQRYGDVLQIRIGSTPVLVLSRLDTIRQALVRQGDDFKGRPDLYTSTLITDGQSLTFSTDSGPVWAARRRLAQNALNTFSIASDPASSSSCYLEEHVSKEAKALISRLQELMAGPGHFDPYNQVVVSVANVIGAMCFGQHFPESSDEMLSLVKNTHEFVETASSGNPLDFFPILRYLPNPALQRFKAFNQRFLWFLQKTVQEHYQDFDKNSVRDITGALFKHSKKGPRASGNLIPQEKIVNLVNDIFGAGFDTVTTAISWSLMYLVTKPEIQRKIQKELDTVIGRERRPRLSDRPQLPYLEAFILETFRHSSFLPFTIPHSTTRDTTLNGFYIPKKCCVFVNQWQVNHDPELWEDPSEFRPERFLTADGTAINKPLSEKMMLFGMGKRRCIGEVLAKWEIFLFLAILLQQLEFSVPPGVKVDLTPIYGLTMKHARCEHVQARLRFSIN

P450 2A13 [6] = assay: Spectral binding titration; set-up: species or system human; settings: P450 2A13 vs P450 2A6
P450 1B1 = target: T5, P450 1B1 (Homo sapiens, UniProt Q16678, L432V); assay: 7-Ethoxyresorufin O-deethylation by P450 1B1
T5 sequence (Q16678 1-543 L432V): T3 sequence (Q16678 1-543 L432V)

P450 1A2 [7] = target: T4, P450 1A2; assay: 7-Ethoxyresorufin O-deethylation by P450 1A2
P450 1A1 = target: T6, P450 1A1 (Homo sapiens, UniProt P04798); assay: 7-Ethoxyresorufin O-deethylation by P450 1A1
T6 sequence (P04798 1-512): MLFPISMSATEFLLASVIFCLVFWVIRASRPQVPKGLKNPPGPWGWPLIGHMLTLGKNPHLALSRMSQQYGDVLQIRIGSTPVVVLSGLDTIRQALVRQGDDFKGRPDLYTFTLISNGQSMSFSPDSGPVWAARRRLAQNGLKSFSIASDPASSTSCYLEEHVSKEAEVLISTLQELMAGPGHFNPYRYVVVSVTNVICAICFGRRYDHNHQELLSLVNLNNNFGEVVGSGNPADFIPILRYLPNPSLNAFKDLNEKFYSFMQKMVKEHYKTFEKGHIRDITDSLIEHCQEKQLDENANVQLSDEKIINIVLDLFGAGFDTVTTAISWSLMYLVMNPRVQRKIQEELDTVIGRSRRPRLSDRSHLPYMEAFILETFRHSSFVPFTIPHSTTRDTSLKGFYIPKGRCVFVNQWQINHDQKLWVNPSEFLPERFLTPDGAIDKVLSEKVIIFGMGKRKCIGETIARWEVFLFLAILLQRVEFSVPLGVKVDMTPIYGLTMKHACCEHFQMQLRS

SMILES	metabolism (HPLC) (P450 2A6 [1])	metabolism (HPLC) (P450 2A13 [2])	also measured
C#CCOc1ccc(-c2ccc(OCC#C)cc2)cc1 [44BDPE, 4,4′-biphenyl dipropargyl ether]	not detected	not detected	–
C#CCOCc1ccccc1-c1ccccc1 [2BMPE, 2-biphenyl methyl propargyl ether]	–	not detected	–
C#CCOc1ccccc1-c1ccccc1 [2BPE, 2-biphenyl propargyl ether]	–	yes	–
CCC#Cc1ccc(-c2ccccc2)cc1 [4BuB, 4-butynylbiphenyl]	–	not detected	–
c1ccc(-c2ccccc2)cc1 [biphenyl]	yes	yes	ΔAmax of Type I binding spectral change (P450 2A13 [3]): 0.045
CC#Cc1ccc2ccc3ccccc3c2c1 [3PPh, 3-(1-propynyl)phenanthrene]	–	yes	Type I spectra Ks (spectral dissociation constant) (P450 2A6 [4]): ND (10 μM)
C#Cc1ccc2c(ccc3ccccc32)c1 [2EPh, 2-ethynylphenanthrene]	yes	yes	Oxidation (product formation on HPLC) (P450 1B1 (1B1.3, L432V)): oxidized 2EPh at lower levels than P450s 2A13 and 2A6; Oxidation (product formation on HPLC) (P450 1A2 [5]): oxidized 2EPh at lower levels than P450s 2A13 and 2A6; Formation of oxygenated products on LC-MS analysis (P450 2A13 [2]): formation of oxygenated products
C#CCOCc1ccc(-c2ccccc2)cc1 [4BMPE, 4-biphenyl methyl propargyl ether]	–	not detected	–
CC#Cc1ccc(-c2ccccc2)cc1 [4PB, 4-propynylbiphenyl]	–	not detected	–
C#CCOc1ccccc1-c1ccccc1OCC#C [22BDPE, 2,2′-biphenyl dipropagyl ether]	–	not detected	–
C#Cc1ccc2ccc3ccccc3c2c1 [3EPh, 3-ethynylphenanthrene]	yes	yes	Formation of oxygenated products on LC-MS analysis (P450 2A13 [2]): formation of oxygenated products
C#Cc1ccc2ccccc2c1 [2EN, 2-ethynylnaphthalene]	yes	yes	ΔAmax/Ks ratio with P450 2A13 relative to that with P450 2A6 (P450 2A13 [6]): about 10 fold
C#CCOc1ccc(-c2ccccc2)cc1 [4BPE, 4-biphenyl propargyl ether]	yes	yes	–
CCOc1ccc2nc3ccc(=O)cc-3oc2c1 [7-ethoxyresorufin]	–	–	Catalytic activity, 7-ethoxyresorufin O-deethylation (nmol product formed/min/nmol P450) (P450 1B1): 14 min⁻¹; Catalytic activity, 7-ethoxyresorufin O-deethylation (nmol product formed/min/nmol P450) (P450 1A2 [7]): 3.2 min⁻¹; Catalytic activity, 7-ethoxyresorufin O-deethylation (nmol product formed/min/nmol P450) (P450 1A1): 35 min⁻¹
CC#Cc1ccc2c(ccc3ccccc32)c1 [2PPh, 2-(1-propynyl)phenanthrene]	yes	yes	–
C#Cc1cc2ccccc2c2ccccc12 [9EPh, 9-ethynylphenanthrene]	–	not detected	Type I spectra Ks (spectral dissociation constant) (P450 2A6 [4]): ND (10 μM)
c1ccc2c(c1)ccc1ccccc12 [phenanthrene]	yes	yes	ΔAmax of Type I binding spectral change (P450 2A13 [3]): 0.063
C#Cc1ccc(-c2ccccc2)cc1 [4EB, 4-ethynylbiphenyl]	not detected	not detected	–
CC#Cc1cc2ccccc2c2ccccc12 [9PPh, 9-(1-propynyl)phenanthrene]	–	not detected	–
